Data taken from paper PMC9914926, “Bioactive Compounds of Underground Valerian Extracts and Their Effect on Inhibiting Metabolic Syndrome-Related Enzymes Activities” (Foods, 2023).
Where two headings read alike, the source gives them in different places.

Columns and labels:
[1] = molecular target: T1, porcine pancreatic α-amylase (Sus scrofa, UniProt P00690); experiment: α-amylase inhibition assay; format: biochemical; conditions: for inhibition of α-amylase activity: 0.5–2 mg/mL; for inhibition ability on α-amylase: dosage 0–2.5 mg/mL
T1 construct: purchased Sigma-Aldrich (St. Louis, MO, USA); host or cells: porcine pancreas
T1 sequence (P00690 16-511): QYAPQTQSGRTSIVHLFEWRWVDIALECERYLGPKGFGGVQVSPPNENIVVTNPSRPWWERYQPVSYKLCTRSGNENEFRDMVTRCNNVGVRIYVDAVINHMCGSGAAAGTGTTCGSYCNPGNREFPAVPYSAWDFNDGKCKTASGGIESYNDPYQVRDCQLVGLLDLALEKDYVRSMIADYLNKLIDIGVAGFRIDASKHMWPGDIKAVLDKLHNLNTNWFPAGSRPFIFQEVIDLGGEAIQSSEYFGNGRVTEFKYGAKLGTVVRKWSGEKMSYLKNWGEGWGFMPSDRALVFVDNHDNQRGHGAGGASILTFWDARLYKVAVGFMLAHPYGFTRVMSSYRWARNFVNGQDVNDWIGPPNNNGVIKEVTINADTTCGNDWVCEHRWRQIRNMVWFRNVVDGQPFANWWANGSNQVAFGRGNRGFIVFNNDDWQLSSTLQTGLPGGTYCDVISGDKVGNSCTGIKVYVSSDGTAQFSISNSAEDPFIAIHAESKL

rabbit lung ACE = molecular target: T2, rabbit lung ACE (Oryctolagus cuniculus, UniProt P12822); experiment: ACE inhibition assay (hippuric acid by HPLC); format: biochemical
T2 construct: purchased Sigma-Aldrich (St. Louis, MO, USA); host or cells: rabbit lung
T2 sequence (P12822 34-1310): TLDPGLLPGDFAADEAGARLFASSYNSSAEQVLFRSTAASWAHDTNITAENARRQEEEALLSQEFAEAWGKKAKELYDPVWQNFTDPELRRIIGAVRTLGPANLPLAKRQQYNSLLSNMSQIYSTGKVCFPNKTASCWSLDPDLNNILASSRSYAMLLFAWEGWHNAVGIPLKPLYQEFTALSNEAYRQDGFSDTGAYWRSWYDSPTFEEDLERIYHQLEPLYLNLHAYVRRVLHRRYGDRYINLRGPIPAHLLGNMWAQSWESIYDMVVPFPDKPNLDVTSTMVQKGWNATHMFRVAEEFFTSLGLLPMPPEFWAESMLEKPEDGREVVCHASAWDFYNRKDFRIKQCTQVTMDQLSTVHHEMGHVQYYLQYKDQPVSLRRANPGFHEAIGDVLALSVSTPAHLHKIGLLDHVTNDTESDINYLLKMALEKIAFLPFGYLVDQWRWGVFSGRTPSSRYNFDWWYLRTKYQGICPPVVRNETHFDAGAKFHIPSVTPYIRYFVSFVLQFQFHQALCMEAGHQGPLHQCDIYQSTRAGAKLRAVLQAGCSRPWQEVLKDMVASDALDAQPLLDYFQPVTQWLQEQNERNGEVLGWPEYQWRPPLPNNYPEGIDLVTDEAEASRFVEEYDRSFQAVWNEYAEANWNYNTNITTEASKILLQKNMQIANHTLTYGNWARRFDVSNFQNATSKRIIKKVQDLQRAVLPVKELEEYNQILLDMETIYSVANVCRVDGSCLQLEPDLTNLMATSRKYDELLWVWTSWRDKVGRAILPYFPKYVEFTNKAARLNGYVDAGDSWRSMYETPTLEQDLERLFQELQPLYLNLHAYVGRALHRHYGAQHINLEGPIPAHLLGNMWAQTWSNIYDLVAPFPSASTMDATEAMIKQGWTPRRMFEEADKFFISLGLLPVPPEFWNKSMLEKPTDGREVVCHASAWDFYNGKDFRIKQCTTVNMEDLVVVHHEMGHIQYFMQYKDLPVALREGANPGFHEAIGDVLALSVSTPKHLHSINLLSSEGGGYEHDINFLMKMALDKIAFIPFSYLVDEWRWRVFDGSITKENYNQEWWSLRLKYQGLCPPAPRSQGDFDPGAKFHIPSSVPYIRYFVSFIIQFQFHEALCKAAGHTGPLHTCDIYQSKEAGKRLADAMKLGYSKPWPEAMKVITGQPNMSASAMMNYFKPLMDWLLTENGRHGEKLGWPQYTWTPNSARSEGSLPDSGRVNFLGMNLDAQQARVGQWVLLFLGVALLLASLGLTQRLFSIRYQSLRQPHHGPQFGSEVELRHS

α-glucosidase = α-glucosidase inhibition assay; format: biochemical
[2] = scavenging ability on DPPH radicals; conditions: 0–250 μg/mL
Experimental: The scavenging ability of each extract on DPPH radicals was determined based on the method by Shimada et al.. Each extract was prepared in methanol at 0–1000 μg extract/mL, and 4 mL was mixed with 1 mL of methanolic solution containing DPPH radicals to a final concentration of 0.2 mM DPPH. After the mixture was shaken vigorously, it was left to stand in the dark for 30 min, and then the absorbance of the mixture was measured at 517 nm against a blank. […] Ascorbic acid, BHA, α-tocopherol, acetoxyvalerenic acid, and valerenic acid were compared. Each analysis was carried out in quadruplicate.

pancreatic lipase = molecular target: T3, pancreatic lipase (Homo sapiens, UniProt P16233); experiment: lipase inhibition assay; format: biochemical; conditions: for inhibition of pancreatic lipase activity: 0.5–2 mg/mL
T3 sequence (P16233 17-465): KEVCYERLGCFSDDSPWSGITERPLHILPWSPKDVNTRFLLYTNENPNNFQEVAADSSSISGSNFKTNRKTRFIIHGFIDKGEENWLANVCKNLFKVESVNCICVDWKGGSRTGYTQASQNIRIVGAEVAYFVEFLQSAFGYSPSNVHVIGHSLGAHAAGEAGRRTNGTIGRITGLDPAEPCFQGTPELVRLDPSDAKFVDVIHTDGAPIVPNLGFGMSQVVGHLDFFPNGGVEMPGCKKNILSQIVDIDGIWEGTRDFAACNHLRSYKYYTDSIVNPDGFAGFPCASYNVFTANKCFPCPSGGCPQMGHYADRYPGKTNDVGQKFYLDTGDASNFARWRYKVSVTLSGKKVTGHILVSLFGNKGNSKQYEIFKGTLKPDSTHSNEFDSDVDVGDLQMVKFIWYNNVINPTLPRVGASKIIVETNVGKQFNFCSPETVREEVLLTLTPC

[3] = read-out: IC50, ACE (converted)

| Compound | IC50, α-Glucosidase (α-glucosidase) | IC50 (rabbit lung ACE; [3]) [mM] | IC50 (pancreatic lipase) [mM] | inhibition ability on α-amylase [1] | also measured |
| --- | --- | --- | --- | --- | --- |
| C[C@H]1O[C@H](O[C@H]2[C@H](O)[C@@H](O)[C@@H](O[C@H]3[C@H](O)[C@@H](O)C(O)O[C@@H]3CO)O[C@@H]2CO)[C@H](O)[C@@H](O)[C@@H]1N[C@H]1C=C(CO)[C@@H](O)[C@H](O)[C@H]1O (stereo partly drawn) [Acarbose, acarbose, reference compound] |  |  |  |  | inhibitory ability of α-amylase ([1]; 5–25 μg/mL): 47–88% |
| CC(=O)O[C@@H]1CC(C)=C2[C@H]1[C@H](C)CC[C@H]2/C=C(\C)C(=O)O [Acetoxyvalerenic acid, acetoxyvalerenic acid] | 1.827 ± 0.005D mg/mL |  |  |  | inhibitory ability on ACE (rabbit lung ACE; 2 mg/mL): 15%; ability to scavenge DPPH radicals [2]: not able to scavenge the DPPH radicals; inhibition of pancreatic lipase activity (pancreatic lipase): Neither; inhibition of α-amylase activity [1]: could not effectively inhibit |
| O=C(O)/C=C/c1ccc(O)c(O)c1 [Caffeic acid, caffeic acid] | 1.289 ± 0.024E mg/mL | 0.522 | 4.03 |  |  |
| O=C(/C=C/c1ccc(O)c(O)c1)O[C@@H]1C[C@](O)(C(=O)O)C[C@@H](O)[C@H]1O [Chlorogenic acid] |  | 13.6 | 3.13 | 0–89.52% | IC50 ([1]; read-out: IC50, α-Amylase (converted)): 5.06 mM |
| O=C(O)c1cc(O)c(O)c(O)c1 [Gallic acid, gallic acid] | 2.164 ± 0.026C mg/mL |  | 3.66 | 0–95.22% | IC50 (rabbit lung ACE): 12.3 mM; IC50 [1]: 7.39 mM |
| O=C(O)c1ccc(O)c(O)c1 [Protocatechuic acid, protocatechuic acid] | 3.721 ± 0.042B mg/mL | 16 | 4.37 | 0–88.03% |  |
| CC1=C2[C@H](/C=C(\C)C(=O)O)CC[C@@H](C)[C@H]2CC1 [Valerenic acid] | 0.617 ± 0.028F mg/mL |  |  |  | IC50, ACE (rabbit lung ACE): 0.225 ± 0.023D mg/mL; ability to scavenge DPPH radicals [2]: not able to scavenge the DPPH radicals; inhibition of pancreatic lipase activity (pancreatic lipase): Neither; inhibition of α-amylase activity [1]: could not effectively inhibit |
